Test results published in US9206136B2, “Pyrazolyl-based carboxamides I” (Grünenthal GmbH, priority 2013, dated 2015).

Legend:
[1] = tested on: Interleukin-2 (IL-2) production/release in Jurkat T cell line clone E6-1; experiment: Jurkat IL-2 Production Assay; assay type: cell-based; details: Homo sapiens; Jurkat T cells stimulated with 15 μg/ml PHA for 22 hours; IL-2 in supernatant (AlphaLisa)
Experimental: Jurkat IL-2 Production Assay
The effect of compounds of the invention on Interleukin-2 (IL-2) production/release was tested in the Jurkat T cell line (ECACC) clone E6-1.
Jurkat T cells were cultured in DMEM/F12/Glutamax (Gibco) containing 10% FCS (Gibco), and maintained at 37° C., 5% CO2. Cells were split twice a week [5·10^6 (Mon-Thu) and 1·10^7 (Thu-Mon) cells/50 ml medium in T-175 ZK culture flasks, respectively].
Prior to experiment, cells were seeded on 96 well plates (Cellstar 96 Well; Cat No. 655180, Greiner bio-one) at a density of 5·10^5 cells/well in DMEM/F12/Glutamax (Gibco) containing 10% FCS (Gibco), and incubated for 60 min at 37° C., 5% CO2. Subsequently, compounds were added and cells were allowed to incubate for 30 min at 37° C., 5% CO2. Cells were then stimulated with 15 μg/ml Phyto-hemagglutinin (PHA; Sigma) for 22 hours at 37° C., 5% CO2.
Before sampling of the supernatants, cells were spun down (200*g/5 min/RT). The amount of IL-2 released into the supernatant was quantified with the human IL-2 AlphaLisa kit (Perkin Elmer) according to manufacturer's instructions. Luminescence proximity measurements were carried out in the Synergy H4 reader (BioTek) employing the fluorescence setting of the reader (ex: 680/30 nm; em: 620/40 nm).
Inhibition of IL-Production/Release in/from Jurkat T Cells Cells was Quantified as Follows:
Zero percent inhibition (MAX) was defined as the [IL-2] determined in supernatants derived from cells to which PHA & DMSO-only had been added instead of compound. Hundred percent inhibition (MIN) was defined as the [IL-2] determined in supernatants derived from cells that had been pre-treated with 1 μM CyclosporineA (Sigma) before the addition of 15 μg/ml PHA.
For routine IC50 determinations of compounds, 8 concentrations of a serial dilution (1:3.16) were tested, starting off from 10 μM.

[2] = biological target: T1, CRAC channel (endogenous SOC in HEK293 cells) (Homo sapiens, UniProt Q96D31); experiment: HEK Calcium Influx Assay (FLIPR); assay type: cell-based; details: 10 μM compound, thapsigargin store depletion, Ca2+ signal 9.5-10 min post-administration, read-out: % inhib. [@ 10 μM] FLIPR
T1 construct: host or cells: HEK293
Experimental: Compounds of the invention have been tested for their effects on CRAC channels according to the following or similar procedures.
The effect of compounds of the invention on intracellular [Ca^2+] was tested in the HEK293 cell line (ECACC).
HEK293 cells were cultured in DMEM/F12/Glutamax (Gibco) containing 10% FCS (Gibco), and maintained at 37° C., 5% CO2. Cell were split twice a week [3·10^6 (Mon-Thu) and 1·10^6 (Thu-Mon) cells/50 ml medium in T-175 ZK culture flasks, respectively]. 24 hours pre-experiment, cells were seeded on 96 well plates (Poly-D-Lysine 96well Black/Clear Plate, BD Biocoat REF 356640) at a density of 40,000 cells/well in DMEM/F12 (Gibco) containing 10% FCS (Gibco), and maintained at 37° C., 5% CO2.
Prior to store-depletion, cell culture medium was removed and cells were loaded with the a Ca^2+-sensitive fluorescent dye comprised within the Calcium-4-assay kit (Molecular Devices) in nominally Ca^2+-free HBS buffer (140 mM NaCl, 4 mM KCl, 0.2 mM MgCl2, 11 mM D-glucose, and 10 mM HEPES, pH 7.4) according to manufacturer's instruction for 60 min at 37° C., 5% CO2.
Passive depletion of intracellular Ca^2+-stores was then triggered by employing the SERCA inhibitor thapsigargin (2 μM final) for 10 min in the dark (rt). To prevent immediate Ca^2+-entry via the activated Store-operated channels (SOCs), cells were maintained in Ca^2+-free HBS buffer comprising 100 μM EGTA during store-depletion.
Intracellular changes in [Ca^2+] were subsequently monitored with the FLIPR device (Molecular Devices). In brief, baseline imaging post-store depletion was allowed for 1 min before adjusting the extracellular buffer to 3 mM CaCl2. Increases in intracellular [Ca^2+] due to pre-activated SOC channels were monitored for 15 min until intracellular Ca^2+ levels had declined into a steady-state. Finally, compounds were administered and Ca^2+ signals were recorded for additional 10 min.
Inhibition of endogenous SOC in HEK293 cells was quantified employing the average Ca^2+ signal measured from 9.5-10 min post-administration. Zero percent inhibition (MAX) was defined as the Ca^2+ signal recorded from wells to which DMSO-only had been added instead of compound. Hundred percent inhibition (MIN) was defined as the signal obtained from wells in which cells haven't been treated with TG prior to Ca^2+ addition and to which DMSO-only had been added instead of compound. For routine IC50 determinations of compounds, 8 concentrations of a serial dilution (1:3.16) were tested, starting off from 10 μM. Reliable IC50's could consequently be determined only, if they were at least sub 2.5-3 μM.

T1 sequence (Q96D31 whole entry): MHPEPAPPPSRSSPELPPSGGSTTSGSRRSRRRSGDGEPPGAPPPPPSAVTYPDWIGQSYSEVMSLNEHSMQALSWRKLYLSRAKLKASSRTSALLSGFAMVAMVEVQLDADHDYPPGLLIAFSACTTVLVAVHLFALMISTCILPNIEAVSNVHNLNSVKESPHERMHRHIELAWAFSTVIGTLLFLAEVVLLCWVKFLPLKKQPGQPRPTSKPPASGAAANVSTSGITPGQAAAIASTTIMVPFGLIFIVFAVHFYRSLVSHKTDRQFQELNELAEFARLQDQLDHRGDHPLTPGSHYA

SMILES	IC50 [1] [µM]	inhibition at 10 µM [2] [%]
Cc1ccc(C2CCOCC2)cc1-c1cc(C(=O)Nc2c(F)cccc2F)nn1C [Example 22, N-(2,6-Difluoro-phenyl)-1-methyl-5-(2-methyl-5-tetrahydro-pyran-4-yl-phenyl)-1H-pyrazole-3-carboxylic acid amide]	1 to 5	> 70
Cc1ccc(-c2ncn(C)n2)cc1-c1cc(C(=O)Nc2c(F)cccc2F)nn1C [Example 23, N-(2,6-Difluoro-phenyl)-1-methyl-5-[2-methyl-5-(1-methyl-1H-[1,2,4]triazol-3-yl)-phenyl]-1H-pyrazole-3-carboxylic acid amide]	1 to 5	< 50
Cc1cc(-c2nccs2)ccc1-c1cc(C(=O)Nc2c(F)cccc2F)nn1C [Example 24, N-(2,6-Difluoro-phenyl)-1-methyl-5-(2-methyl-4-thiazol-2-yl-phenyl)-1H-pyrazole-3-carboxylic acid amide]	1 to 5	> 70
Cc1ccc(-c2nccs2)cc1-c1c(C)c(C(=O)Nc2c(F)cccc2F)nn1C [Example 25, N-(2,6-Difluoro-phenyl)-1,4-dimethyl-5-(2-methyl-5-thiazol-2-yl-phenyl)-1H-pyrazole-3-carboxylic acid amide]	1 to 5	< 50
Cc1ccc(-c2nccs2)cc1-c1c(C)c(C(=O)Nc2ccncc2F)nn1C [Example 26, N-(3-Fluoro-pyridin-4-yl)-1,4-dimethyl-5-(2-methyl-5-thiazol-2-yl-phenyl)-1H-pyrazole-3-carboxylic acid amide]	1 to 5	< 50
Cc1c(C(=O)Nc2c(F)cccc2F)nn(C)c1-c1cccc(-c2nccs2)c1 [Example 27, N-(2,6-Difluoro-phenyl)-1,4-dimethyl-5-(3-thiazol-2-yl-phenyl)-1H-pyrazole-3-carboxylic acid amide]	0.5 to 1	> 70
Cc1nnc(-c2ccc(C)c(-c3cc(C(=O)Nc4c(F)cccc4F)nn3C)c2)[nH]1 [Example 28, N-(2,6-Difluoro-phenyl)-1-methyl-5-[2-methyl-5-(5-methyl-4H-[1,2,4]triazol-3-yl)-phenyl]-1H-pyrazole-3-carboxylic acid amide]	1 to 5	< 50
Cn1nc(C(=O)Nc2c(F)cccc2F)cc1-c1cc(-c2ncco2)ccc1OC(F)(F)F [Example 30, N-(2,6-Difluoro-phenyl)-1-methyl-5-[5-oxazol-2-yl-2-(trifluoromethyloxy)-phenyl]-1H-pyrazole-3-carboxylic acid amide]	0.5 to 1	> 70
Cn1nc(C(=O)Nc2ccncc2F)cc1-c1cc(-c2ncco2)ccc1OC(F)(F)F [Example 31, N-(3-Fluoro-pyridin-4-yl)-1-methyl-5-[5-oxazol-2-yl-2-(trifluoromethyloxy)-phenyl]-1H-pyrazole-3-carboxylic acid amide]	1 to 5	50 to 70
Cc1ccc(-c2nnc[nH]2)cc1-c1cc(C(=O)Nc2c(F)cccc2F)nn1C [Example 32, N-(2,6-Difluoro-phenyl)-1-methyl-5-[2-methyl-5-(4H-[1,2,4]triazol-3-yl)-phenyl]-1H-pyrazole-3-carboxylic acid amide]	1 to 5	< 50
Cn1nc(C(=O)Nc2c(F)cncc2F)cc1-c1cc(-c2ncco2)ccc1OC(F)(F)F [Example 33, N-(3,5-Difluoro-pyridin-4-yl)-1-methyl-5-[5-oxazol-2-yl-2-(trifluoro-methyloxy)-phenyl]-1H-pyrazole-3-carboxylic acid amide]	0.5 to 1	50 to 70
COc1ccc(C2CC2)cc1-c1c(C)c(C(=O)Nc2c(F)cccc2F)nn1C [Example 34, 5-(5-Cyclopropyl-2-methoxy-phenyl)-N-(2,6-difluoro-phenyl)-1,4-dimethyl-1H-pyrazole-3-carboxylic acid amide]	0.5 to 1	> 70
COc1ccc(C2CC2)cc1-c1c(C)c(C(=O)Nc2c(F)cncc2F)nn1C [Example 35, 5-(5-Cyclopropyl-2-methoxy-phenyl)-N-(3,5-difluoro-pyridin-4-yl)-1,4-dimethyl-1H-pyrazole-3-carboxylic acid amide]	0.5 to 1	> 70
Cn1nc(C(=O)Nc2c(F)cccc2F)cc1-c1cc(C2CC2)ccc1OC(F)(F)F [Example 36, 5-[5-Cyclopropyl-2-(trifluoromethyloxy)-phenyl]-N-(2,6-difluoro-phenyl)-1-methyl-1H-pyrazole-3-carboxylic acid amide]	< 0.5	> 70
Cn1nc(C(=O)Nc2c(F)cncc2F)cc1-c1cc(C2CC2)ccc1OC(F)(F)F [Example 37, 5-[5-Cyclopropyl-2-(trifluoromethyloxy)-phenyl]-N-(3,5-difluoro-pyridin-4-yl)-1-methyl-1H-pyrazole-3-carboxylic acid amide]	< 0.5	> 70
Cn1nc(C(=O)Nc2ccncc2F)cc1-c1cc(C2CC2)ccc1OC(F)(F)F [Example 38, 5-[5-Cyclopropyl-2-(trifluoromethyloxy)-phenyl]-N-(3-fluoro-pyridin-4-yl)-1-methyl-1H-pyrazole-3-carboxylic acid amide]	1 to 5	> 70
Cn1nc(C(=O)Nc2c(F)cccc2F)cc1-c1ccc(C2CC2)cc1OC(F)(F)F [Example 39, 5-[4-Cyclopropyl-2-(trifluoromethyloxy)-phenyl]-N-(2,6-difluoro-phenyl)-1-methyl-1H-pyrazole-3-carboxylic acid amide]	< 0.5	> 70
Cn1nc(C(=O)Nc2c(F)cncc2F)cc1-c1ccc(C2CC2)cc1OC(F)(F)F [Example 40, 5-[4-Cyclopropyl-2-(trifluoromethyloxy)-phenyl]-N-(3,5-difluoro-pyridin-4-yl)-1-methyl-1H-pyrazole-3-carboxylic acid amide]	< 0.5	> 70
Cn1nc(C(=O)Nc2ccncc2F)cc1-c1ccc(C2CC2)cc1OC(F)(F)F [Example 41, 5-[4-Cyclopropyl-2-(trifluoromethyloxy)-phenyl]-N-(3-fluoro-pyridin-4-yl)-1-methyl-1H-pyrazole-3-carboxylic acid amide]	1 to 5	> 70
Cc1ccc(-c2ncco2)cc1-c1c(N)c(C(=O)Nc2c(F)cncc2F)nn1C [Example 43, 4-Amino-N-(3,5-difluoro-pyridin-4-yl)-1-methyl-5-(2-methyl-5-oxazol-2-yl-phenyl)-1H-pyrazole-3-carboxylic acid amide]	1 to 5	< 50
